According to PubChem BioAssay (NCI):
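Test compounds were applied to cells in 96-well plates for 48 hours at 5 doses. Definition used: TGI = concentration required for complete inhibition of growth.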

Tests used:
Test in all cases: inhibition of tumour cell growth, NCI panel, 48 h
[1] = system: NCI/ADR-RES ovarian
[2] = system: ACHN renal
[3] = system: HOP-62 NSCLC
[4] = system: EKVX NSCLC
[5] = system: MDA-MB-231 breast
[6] = system: OVCAR-3 ovarian
[7] = system: OVCAR-5 ovarian
[8] = system: COLO 205 colon
[9] = system: CCRF-CEM leukemia
[10] = system: HCC-2998 colon
[11] = system: NCI-H522 lung
[12] = system: SN12C renal
[13] = system: SW-620 colon
[14] = system: SNB-19 CNS
[15] = system: SK-MEL-2 melanoma
[16] = system: IGROV1 ovarian
[17] = system: K-562 leukemia
[18] = system: SF-295 CNS
[19] = system: T-47D breast
[20] = system: UACC-62 melanoma
[21] = system: NCI-H460 lung
[22] = system: SR leukemia
[23] = system: SK-OV-3 ovarian
[24] = system: HOP-92 NSCLC
[25] = system: A498 renal
[26] = system: U251 CNS
[27] = system: SF-539 CNS
[28] = system: HT29 colon
[29] = system: HS 578T breast
[30] = system: LOX IMVI melanoma
[31] = system: 786-0 renal
[32] = system: A549 NSCLC
[33] = system: KM12 colon
[34] = system: HL-60(TB) leukemia
[35] = system: OVCAR-4 ovarian
[36] = system: OVCAR-8 ovarian
[37] = system: MDA-N
[38] = system: MCF7 breast
[39] = system: SNB-75 CNS
[40] = system: RXF 393 renal
[41] = system: M14 melanoma
[42] = system: HCT-116 colon
[43] = system: UO-31 renal
[44] = system: CAKI-1 renal
[45] = system: SK-MEL-28 melanoma
[46] = system: SF-268 CNS
[47] = system: HCT-15 colon
[48] = system: BT-549 breast
[49] = system: PC-3 prostate
[50] = system: NCI-H23 lung
[51] = system: UACC-257 melanoma
[52] = system: NCI-H226 lung
[53] = system: TK-10 renal
[54] = system: MALME-3M melanoma
[55] = system: DU-145 prostate
[56] = system: SK-MEL-5 melanoma
[57] = system: RPMI-8226 leukemia
[58] = system: MDA-MB-435
[59] = system: MOLT-4 leukemia

O=[N+]([O-])C(=C(Sc1ccccc1)Sc1ccccc1)C(Cl)=C(Cl)Cl
TGI [1]: 1.9 µM
TGI [2]: 0.895 µM
TGI [3]: 4.09 µM
TGI [4]: 5.15 µM
TGI [5]: 0.408 µM
TGI [6]: 1.31 µM
TGI [7]: 1.48 µM
TGI [8]: 0.697 µM
TGI [9]: 0.0419 µM
TGI [10]: 4.4 µM
TGI [11]: 0.143 µM
TGI [12]: 1.35 µM
TGI [13]: 0.228 µM
TGI [14]: 24.8 µM
TGI [15]: 5.86 µM
TGI [16]: 2.95 µM
TGI [17]: 0.701 µM
TGI [18]: 28.3 µM
TGI [19]: 1.14 µM
TGI [20]: 1.94 µM
TGI [21]: 16.6 µM
TGI [22]: 0.564 µM
TGI [23]: 24.6 µM
TGI [24]: 5.99 µM
TGI [25]: 6.94 µM
TGI [26]: 4.21 µM
TGI [27]: 5.81 µM
TGI [28]: 0.487 µM
TGI [29]: 17.6 µM
TGI [30]: 1.09 µM
TGI [31]: 0.188 µM
TGI [32]: 6.59 µM
TGI [33]: 7.03 µM
TGI [34]: 0.813 µM
TGI [35]: 1.46 µM
TGI [36]: 0.831 µM
TGI [37]: 0.675 µM
TGI [38]: 1.05 µM
TGI [39]: 10.7 µM
TGI [40]: 1.99 µM
TGI [41]: 1.17 µM
TGI [42]: 0.125 µM
TGI [43]: 0.402 µM
TGI [44]: 1.61 µM
TGI [45]: 1.09 µM
TGI [46]: 5.37 µM
TGI [47]: 1.02 µM
TGI [48]: 4.61 µM
TGI [49]: 5.78 µM
TGI [50]: 2.91 µM
TGI [51]: 1.1 µM
TGI [52]: 1.31 µM
TGI [53]: 0.326 µM
TGI [54]: 1.37 µM
TGI [55]: 3.43 µM
TGI [56]: 3.58 µM
TGI [57]: 0.0712 µM
TGI [58]: 1.3 µM
TGI [59]: 0.216 µM

O=C1N[C@@H]2c3c(csc3Br)C(=O)[C@@H]2O1
TGI [1]: > 100 µM
TGI [2]: > 100 µM
TGI [3]: > 100 µM
TGI [4]: > 100 µM
TGI [5]: > 100 µM
TGI [6]: 47.8 µM
TGI [7]: > 100 µM
TGI [8]: > 100 µM
TGI [9]: 40.1 µM
TGI [10]: 39.1 µM
TGI [11]: 68.3 µM
TGI [12]: > 100 µM
TGI [13]: 50.5 µM
TGI [14]: > 100 µM
TGI [15]: > 100 µM
TGI [16]: > 100 µM
TGI [17]: 53.4 µM
TGI [18]: > 100 µM
TGI [19]: 99 µM
TGI [20]: > 100 µM
TGI [21]: > 100 µM
TGI [22]: 74.1 µM
TGI [23]: > 100 µM
TGI [24]: 59.3 µM
TGI [25]: > 100 µM
TGI [26]: 69.2 µM
TGI [27]: > 100 µM
TGI [28]: > 100 µM
TGI [29]: > 100 µM
TGI [30]: 41.3 µM
TGI [31]: > 100 µM
TGI [32]: > 100 µM
TGI [33]: > 100 µM
TGI [34]: 64.9 µM
TGI [36]: 57.6 µM
TGI [37]: 67.6 µM
TGI [38]: > 100 µM
TGI [39]: > 100 µM
TGI [40]: 43.7 µM
TGI [41]: > 100 µM
TGI [42]: > 100 µM
TGI [43]: 58.4 µM
TGI [44]: 43.1 µM
TGI [45]: > 100 µM
TGI [46]: > 100 µM
TGI [47]: > 100 µM
TGI [48]: > 100 µM
TGI [49]: > 100 µM
TGI [50]: > 100 µM
TGI [51]: 58.9 µM
TGI [53]: 80.3 µM
TGI [54]: > 100 µM
TGI [55]: > 100 µM
TGI [56]: > 100 µM
TGI [57]: 85.1 µM
TGI [58]: 46.9 µM
TGI [59]: 52.4 µM

Cc1cc(C)c2c(n1)S(=O)(=O)N(CCCN1CCN(c3cccc(C(F)(F)F)c3)CC1)/C(=C(\O)c1ccc(Cl)cc1)C2=O
TGI [1]: 16.4 µM
TGI [2]: 13.8 µM
TGI [3]: 37.1 µM
TGI [4]: 10.7 µM
TGI [5]: 18.7 µM
TGI [6]: 18.9 µM
TGI [7]: 18.1 µM
TGI [8]: 3.58 µM
TGI [9]: > 100 µM
TGI [11]: 14.8 µM
TGI [12]: 13.8 µM
TGI [13]: 39 µM
TGI [14]: 16.6 µM
TGI [15]: 16.8 µM
TGI [16]: 16.2 µM
TGI [17]: > 100 µM
TGI [18]: 14.2 µM
TGI [19]: 38.9 µM
TGI [20]: 18.3 µM
TGI [21]: 11 µM
TGI [22]: > 100 µM
TGI [23]: 20.3 µM
TGI [24]: 8.35 µM
TGI [25]: 16.9 µM
TGI [26]: 14.3 µM
TGI [27]: 17.1 µM
TGI [28]: 13.3 µM
TGI [29]: 56.8 µM
TGI [30]: 17.6 µM
TGI [31]: 15.4 µM
TGI [32]: 13.1 µM
TGI [33]: 14.6 µM
TGI [34]: 6.15 µM
TGI [35]: 15.1 µM
TGI [36]: 29.5 µM
TGI [37]: 15 µM
TGI [38]: 14 µM
TGI [39]: 8.04 µM
TGI [40]: 19.1 µM
TGI [41]: 18.1 µM
TGI [42]: 11.9 µM
TGI [43]: 10.8 µM
TGI [44]: 8.77 µM
TGI [45]: 29.8 µM
TGI [46]: 21.2 µM
TGI [47]: 13.9 µM
TGI [48]: 19.3 µM
TGI [49]: 13.6 µM
TGI [50]: 14 µM
TGI [51]: 8.49 µM
TGI [52]: 8.61 µM
TGI [53]: 11.9 µM
TGI [54]: 15.8 µM
TGI [55]: 19.9 µM
TGI [56]: 6.22 µM
TGI [58]: 15 µM
TGI [59]: 4 µM
